The nature of data set [1]: Cytotoxicity, ATPlite Luminescence Assay. It counts as cell-based, human. Conditions: human, HepG2 or HepG2.117 cells, 3-days incubation unless marked with *. As for the experimental part: Cytotoxicity of the compounds was tested using HepG2 or HepG2.117 cells, incubated for 3 or 4 days in the presence of compounds. The viability of the cells was assessed using the PERKIN ELMER ATPlite Luminescence Assay System.”

For data set [2], the system named is HBV (HepG2.117 cell line, inducibly HBV producing). In words: Anti-HBV activity, intracellular HBV DNA by real-time PCR in HepG2.117 cell line. It counts as cell-based, hepatitis B virus. Conditions: Hepatitis B virus, HepG2.117, 72 h, HepG2.117 cells, 3 days of treatment. On the procedure:
The anti HBV activity was measured using the HepG2.117 cell line, a stable, inducibly HBV producing cell line, which replicates HBV in the absence of doxycycline (Tet-off system). The HepG2 cell line is available from ATCCR under number HB-8065. Transfection of the HepG2 cell line can be as described in Sun and Nassal 2006 Journal of Hepatology 45 (2006) 636-645 “Stable HepG2- and Huh7-based human hepatoma cell lines for efficient regulated expression of infectious hepatitis B virus”.
For the antiviral assay, HBV replication was induced, followed by a treatment with serially diluted compound in 96-well plates. After 3 days of treatment, the antiviral activity was determined by quantification of intracellular HBV DNA using real-time PCR and an HBV specific primer set and probe.
Background: In qPCR the cycle at which signal appears reflects the starting amount.

Data set [3] in a line: Human liver microsome stability. It counts as in vitro ADME. Conditions: human, pooled human liver microsomes, pH 7.4, pooled human liver microsomes 0.5 mg/mL, 1 μM compound, NADPH 1 mM, 37° C., 0-60 min; read-out: HLM Metabolism t1/2. On the procedure:
Human Liver Microsome Stability t½ (Min) of Compounds of Formula (I) […] All incubations are performed singularly for each compound. NADPH was added to initiate the reaction with the final concentration of 1 mM and the final incubation volume of 400 μL. At 6 time points (0, 5, 10, 20, 40 and 60 min) reactions were stopped by the removal of 50 μL of the incubation mixture into plates containing acetonitrile at a of 1:3 (v:v). The plates were centrifuged at 3000 rpm for 10 min at 4° C. to precipitate the protein. Following protein precipitation, the sample supernatants were combined in cassettes of up to 8 compounds. The internal standard was added (1:1 supernatant to internal standard solution) and samples were analyzed using standard LC-MS conditions. From a plot of ln peak area ratio (compound peak area/internal standard peak area) against time, the gradient of the line is determined. Subsequently, half-life is calculated using the equations below: Elimination rate constant (k)=(−gradient) […]
(Liver microsomes are a subcellular fraction often used to study metabolism.)

Molecules are shown by their SMILES.

Usually CC50 stands for the concentration that lowers cell viability or growth by half. Consider `CC(c1ccccn1)N1CCn2nc3c(c2C1=O)CN(C(=O)c1ccc(Cl)c(Cl)c1)[C@H](C)C3` (mixture of isomers) [Ref 3, reference compound], for which the CC50 at 3 days in data set [1] was over 50 µM.
The term EC50 denotes the concentration at which the effect is half-maximal. Higher therefore signals lower potency in that assay. In turn, `C[C@@H]1Cc2nn3c(c2CN1C(=O)c1ccc(Cl)c(C#N)c1)C(=O)N([C@H](C)c1ccc(OC(F)F)cc1)C[C@@H]3C` (relative stereo) [Compound 1A, 2-Chloro-5-((3R,7S*)-9-((R*)-1-(4-(difluoromethoxy)phenyl)ethyl)-3,7-dimethyl-10-oxo-1,2,3,4,7,8,9,10-octahydropyrido[4′,3′:3,4]pyrazolo[1,5-a]pyrazine-2-carbonyl)benzonitrile] came in with an EC50 in data set [2] of 0.21 µM. Further, the CC50 at 3 days in data set [1] was over 50 µM. Moreover, the half-life at 1 μM in data set [3] was 0.235 h.
The matching figures for `C[C@@H]1Cc2nn3c(c2CN1C(=O)c1ccc(Cl)c(C#N)c1)C(=O)N([C@@H](C)c1ccc(OC(F)F)cc1)C[C@@H]3C` (relative stereo) [Compound 1B, 2-Chloro-5-((3R,7S*)-9-((S*)-1-(4-(difluoromethoxy)phenyl)ethyl)-3,7-dimethyl-10-oxo-1,2,3,4,7,8,9,10-octahydropyrido[4′,3′:3,4]pyrazolo[1,5-a]pyrazine-2-carbonyl)benzonitrile]: 1.49 µM, over 50 µM and 0.612 h.
With `C[C@@H]1Cc2nn3c(c2CN1C(=O)c1ccc(Cl)c(C#N)c1)C(=O)N([C@H](C)c1ccc(OC(F)F)cc1)C[C@H]3C` (relative stereo) [Compound 1C, 2-Chloro-5-((3R,7R*)-9-((R*)-1-(4-(difluoromethoxy)phenyl)ethyl)-3,7-dimethyl-10-oxo-1,2,3,4,7,8,9,10-octahydropyrido[4′,3′:3,4]pyrazolo[1,5-a]pyrazine-2-carbonyl)benzonitrile], the response in data set [2] was half-maximal at 0.044 µM (EC50). The compound further returned a CC50 at 3 days in data set [1] of over 50 µM. The half-life at 1 μM in data set [3] is over 3 h.
The matching figures for `C[C@@H]1Cc2nn3c(c2CN1C(=O)c1ccc(Cl)c(Cl)c1)C(=O)N([C@H](C)c1ccc([S@](C)(=N)=O)cc1)C[C@H]3C` (relative stereo) [Compound 18A, (3R,7R)-2-(3,4-dichlorobenzoyl)-3,7-dimethyl-9-((R*)-1-(4-((R*)—S-methylsulfonimidoyl)phenyl)ethyl)-1,2,3,4,8,9-hexahydropyrido[4′,3′:3,4]pyrazolo[1,5-a]pyrazin-10(7H)-one]: 0.084 µM, over 50 µM and over 3 h.
The matching figures for `C[C@@H]1Cc2nn3c(c2CN1C(=O)c1ccc(Cl)c(Cl)c1)C(=O)N([C@H](C)c1ccc([S@@](C)(=N)=O)cc1)C[C@H]3C` (relative stereo) [Compound 18B, (3R,7R)-2-(3,4-dichlorobenzoyl)-3,7-dimethyl-9-((R*)-1-(4-((S*)—S-methylsulfonimidoyl)phenyl)ethyl)-1,2,3,4,8,9-hexahydropyrido[4′,3′:3,4]pyrazolo[1,5-a]pyrazin-10(7H)-one]: 0.031 µM, over 50 µM and over 3 h.
Take `C[C@@H]1Cc2nn3c(c2CN1C(=O)c1ccc(Cl)c(Cl)c1)C(=O)N([C@@H](C)c1ccc([S@](C)(=N)=O)cc1)C[C@H]3C` (relative stereo) [Compound 18C, (3R,7R)-2-(3,4-dichlorobenzoyl)-3,7-dimethyl-9-((S*)-1-(4-((R*)—S-methylsulfonimidoyl)phenyl)ethyl)-1,2,3,4,8,9-hexahydropyrido[4′,3′:3,4]pyrazolo[1,5-a]pyrazin-10(7H)-one]: a half-maximal effect in data set [2] (EC50) was put at 0.03 µM. Also, the CC50 at 3 days in data set [1] was over 50 µM. In data set [3], the half-life at 1 μM is over 3 h.
The matching figures for `C[C@@H]1Cc2nn3c(c2CN1C(=O)c1ccc(Cl)c(Cl)c1)C(=O)N([C@@H](C)c1ccc([S@@](C)(=N)=O)cc1)C[C@H]3C` (relative stereo) [Compound 18D, (3R,7R)-2-(3,4-dichlorobenzoyl)-3,7-dimethyl-9-((S*)-1-(4-((S*)—S-methylsulfonimidoyl)phenyl)ethyl)-1,2,3,4,8,9-hexahydropyrido[4′,3′:3,4]pyrazolo[1,5-a]pyrazin-10(7H)-one]: 0.024 µM, over 50 µM and over 3 h.
On the same counts, the results for `C[C@@H]1Cc2nn3c(c2CN1C(=O)c1ccc(Cl)c(C(F)(F)F)c1)C(=O)N([C@H](C)c1ccc([S@](C)(=N)=O)cc1)C[C@H]3C` (relative stereo) [Compound 19A, (3R,7R)-2-(4-chloro-3-(trifluoromethyl)benzoyl)-3,7-dimethyl-9-((R*)-1-(4-((R*)—S-methylsulfonimidoyl)phenyl)ethyl)-1,2,3,4,8,9-hexahydropyrido[4′,3′:3,4]pyrazolo[1,5-a]pyrazin-10(7H)-one] are 0.026 µM, over 50 µM and over 3 h.
On the same counts, the results for `C[C@@H]1Cc2nn3c(c2CN1C(=O)c1ccc(Cl)c(C(F)(F)F)c1)C(=O)N([C@H](C)c1ccc([S@@](C)(=N)=O)cc1)C[C@H]3C` (relative stereo) [Compound 19B, (3R,7R)-2-(4-chloro-3-(trifluoromethyl)benzoyl)-3,7-dimethyl-9-((R*)-1-(4-((S*)—S-methylsulfonimidoyl)phenyl)ethyl)-1,2,3,4,8,9-hexahydropyrido[4′,3′:3,4]pyrazolo[1,5-a]pyrazin-10(7H)-one] are 0.015 µM, over 50 µM and over 3 h.
`C[C@@H]1Cc2nn3c(c2CN1C(=O)c1ccc(Cl)c(C(F)(F)F)c1)C(=O)N([C@@H](C)c1ccc([S@](C)(=N)=O)cc1)C[C@H]3C` (relative stereo) [Compound 19C, (3R,7R)-2-(4-chloro-3-(trifluoromethyl)benzoyl)-3,7-dimethyl-9-((S*)-1-(4-((R*)—S-methylsulfonimidoyl)phenyl)ethyl)-1,2,3,4,8,9-hexahydropyrido[4′,3′:3,4]pyrazolo[1,5-a]pyrazin-10(7H)-one]: in data set [2], the EC50 stood at 0.011 µM. In addition, in data set [1], the CC50 at 3 days was over 50 µM. For the same compound, the half-life at 1 μM in data set [3] was over 3 h.
The matching figures for `C[C@@H]1Cc2nn3c(c2CN1C(=O)c1ccc(Cl)c(C(F)(F)F)c1)C(=O)N([C@@H](C)c1ccc([S@@](C)(=N)=O)cc1)C[C@H]3C` (relative stereo) [Compound 19D, (3R,7R)-2-(4-chloro-3-(trifluoromethyl)benzoyl)-3,7-dimethyl-9-((S*)-1-(4-((S*)—S-methylsulfonimidoyl)phenyl)ethyl)-1,2,3,4,8,9-hexahydropyrido[4′,3′:3,4]pyrazolo[1,5-a]pyrazin-10(7H)-one]: 0.011 µM, over 50 µM and over 3 h.
For `C[C@@H]1Cc2nn3c(c2CN1C(=O)c1ccc(Cl)c(Cl)c1)C(=O)N([C@H](C)c1ccc(C#N)cc1)CC3` [Ref 4, reference compound], the CC50 at 3 days in data set [1] is over 50 µM.
On the same count and under the same terms, with `C[C@@H]1Cc2nn3c(c2CN1C(=O)c1ccc(Cl)c(Cl)c1)C(=O)N([C@@H](C)c1ccc(C#N)cc1)CC3` [Ref 5, reference compound] the figure was over 50 µM.

These data come from patent publication US20240287070A1, “FUSED HETEROCYCLIC DERIVATIVES” (Janssen Sciences Ireland Unlimited Company, priority 2021, published 2024).
